How the values were obtained:
FAAH [1] = target: T1, FAAH (Mus musculus, UniProt O08914); assay: biochemical; conditions: in vitro competitive ABPP
T1 sequence (O08914 1-579): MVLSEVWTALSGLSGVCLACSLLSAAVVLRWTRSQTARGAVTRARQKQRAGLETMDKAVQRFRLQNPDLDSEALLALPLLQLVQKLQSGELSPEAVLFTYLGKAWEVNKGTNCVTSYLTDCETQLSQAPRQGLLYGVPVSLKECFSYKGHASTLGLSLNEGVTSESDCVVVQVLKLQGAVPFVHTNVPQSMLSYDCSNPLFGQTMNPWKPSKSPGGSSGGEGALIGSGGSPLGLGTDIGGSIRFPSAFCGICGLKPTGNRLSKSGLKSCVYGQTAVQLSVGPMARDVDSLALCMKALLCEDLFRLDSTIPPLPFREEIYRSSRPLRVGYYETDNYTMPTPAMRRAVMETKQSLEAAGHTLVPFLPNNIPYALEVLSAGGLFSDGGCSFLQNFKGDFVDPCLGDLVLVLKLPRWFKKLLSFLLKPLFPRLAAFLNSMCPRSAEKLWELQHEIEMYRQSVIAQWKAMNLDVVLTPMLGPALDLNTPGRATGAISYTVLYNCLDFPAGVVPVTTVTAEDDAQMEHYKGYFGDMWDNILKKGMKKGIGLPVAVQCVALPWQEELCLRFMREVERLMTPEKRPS

ABHD6 [2] = target: T2, ABHD6 (Mus musculus, UniProt Q8R2Y0); assay: In vitro competitive activity-based protein profiling (Table 2, % inhibition at 1 μM); format: biochemical; conditions: read-out: % Inhibition at 1 μM ABHD6
T2 sequence (Q8R2Y0 1-336): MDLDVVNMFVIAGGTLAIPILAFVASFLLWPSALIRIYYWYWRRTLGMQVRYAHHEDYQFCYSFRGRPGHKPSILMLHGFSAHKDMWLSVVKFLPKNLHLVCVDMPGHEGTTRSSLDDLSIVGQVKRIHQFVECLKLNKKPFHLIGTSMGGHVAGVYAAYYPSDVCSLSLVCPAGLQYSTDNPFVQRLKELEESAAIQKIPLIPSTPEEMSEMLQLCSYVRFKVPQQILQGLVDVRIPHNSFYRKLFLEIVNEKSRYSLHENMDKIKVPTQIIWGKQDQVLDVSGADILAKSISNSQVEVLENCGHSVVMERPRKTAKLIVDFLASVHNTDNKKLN

FAAH [3] = target: T1, FAAH; assay: as above; format: biochemical; conditions: read-out: % Inhibition at 1 μM FAAH
MAGL [4] = target: T3, MAGL (Mus musculus, UniProt O35678); assay: as above; format: biochemical; conditions: read-out: % Inhibition at 1 μM MAGL
T3 sequence (O35678 1-303): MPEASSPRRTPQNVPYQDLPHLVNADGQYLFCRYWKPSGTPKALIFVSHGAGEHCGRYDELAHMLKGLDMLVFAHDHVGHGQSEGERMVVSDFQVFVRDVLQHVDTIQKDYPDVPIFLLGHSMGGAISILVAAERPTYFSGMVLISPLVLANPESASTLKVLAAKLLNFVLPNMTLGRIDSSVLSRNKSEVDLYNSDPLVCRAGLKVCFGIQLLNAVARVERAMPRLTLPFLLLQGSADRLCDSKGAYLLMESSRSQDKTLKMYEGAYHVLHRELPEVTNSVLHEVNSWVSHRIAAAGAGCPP
Procedure: After 30 min, FP—Rh (1.0 μL, 50 μM in DMSO) was added and the mixture was incubated for another 30 min at 37° C. Reactions were quenched with SDS loading buffer (50 μL-4×) and run on SDS-PAGE.
Cell lysates were diluted with mock proteomes for use in competitive ABPP experiments.

ABHD6 [5] = target: T2, ABHD6; assay: biochemical; conditions: in vitro competitive ABPP
MAGL [6] = target: T3, MAGL; assay: biochemical; conditions: mouse; in vitro competitive ABPP; read-out: Mouse (IC50 value, nM) MAGL
Mouse brain MAGL = target: T4, Mouse brain MAGL (Mus musculus, UniProt O35678); assay: Mouse brain proteomes from inhibitor treated mice (oral gavage, ABPP analysis); format: in vivo; conditions: p.o., sacrificed 4 h following administration
T4 construct: from tissue; host or cells: brain of wild-type C57Bl/6J mice dosed by oral gavage
T4 sequence (O35678 1-303): T3 sequence (O35678 1-303)

Compound | IC50 (FAAH [1]) | inhibition at 1 µM (ABHD6 [2]) | inhibition at 1 µM (FAAH [3]) | inhibition at 1 µM (MAGL [4]) | IC50 (ABHD6 [5]) | IC50 (MAGL [6]) | inhibition at 5 mg/kg (Mouse brain MAGL)
CC(=O)N1CCN(c2cc(C(C)C)ccc2CN2CC3CN(C(=O)OC(C(F)(F)F)C(F)(F)F)CC3C2)CC1 (stereo not shown) [Example 24, 1,1,1,3,3,3-Hexafluoropropan-2-yl 5-[[2-(4-acetylpiperazin-1-yl)-4-(propan-2-yl)phenyl]methyl]-octahydropyrrolo[3,4-c]pyrrole-2-carboxylate] | > 10000 nM | 25 to 75% | < 25% | > 75% | 1000 to 10000 nM | < 100 nM | ≤ 25%
CCn1cc(CN2CC3CN(C(=O)OC(C(F)(F)F)C(F)(F)F)CC3C2)c(-c2cccc(N3CCCC3)c2)n1 (stereo not shown) [Example 64, 1,1,1,3,3,3-Hexafluoropropan-2-yl 5-([1-ethyl-3-[3-(pyrrolidin-1-yl)phenyl]-1H-pyrazol-4-yl]methyl)-octahydropyrrolo[3,4-c]pyrrole-2-carboxylate] | 1000 to 10000 nM | < 25% | < 25% | > 75% | 1000 to 10000 nM | < 100 nM | 25 to 75%
CC(C)(C)c1cc(CN2CC3CN(C(=O)OC(C(F)(F)F)C(F)(F)F)CC3C2)n(-c2ccccc2Cl)n1 (stereo not shown) [Example 170, 1,1,1,3,3,3-hexafluoropropan-2-yl 5-[[3-tert-butyl-1-(2-chlorophenyl)-1H-pyrazol-5-yl]methyl]-octahydropyrrolo[3,4-c]pyrrole-2-carboxylate] | > 10000 nM | 25 to 75% | < 25% | > 75% | 1000 to 10000 nM | < 100 nM | 25 to 75%
CC(C)n1cc(CN2CC3CN(C(=O)OC(C(F)(F)F)C(F)(F)F)CC3C2)c(-c2ccccc2Cl)n1 (stereo not shown) [Example 54, 1,1,1,3,3,3-Hexafluoropropan-2-yl 5-[[3-(2-chlorophenyl)-1-(propan-2-yl)-1H-pyrazol-4-yl]methyl]-octahydropyrrolo[3,4-c]pyrrole-2-carboxylate] | > 10000 nM | 25 to 75% | < 25% | > 75% | 100 to 1000 nM | < 100 nM | 25 to 75%
Cc1cccc(CN2CC3CN(C(=O)OC(C(F)(F)F)C(F)(F)F)CC3C2)c1N1CCC2(CCOC2)C1 (stereo not shown) [Example 40, 1,1,1,3,3,3-Hexafluoropropan-2-yl 5-[(3-methyl-2-[2-oxa-7-azaspiro[4.4]nonan-7-yl]phenyl)methyl]-octahydropyrrolo[3,4-c]pyrrole-2-carboxylate] | 1000 to 10000 nM | < 25% | < 25% | > 75% | 1000 to 10000 nM | < 100 nM | 25 to 75%
CCn1cc(CN2CC3CN(C(=O)OC(C(F)(F)F)C(F)(F)F)CC3C2)c(-c2cccc(N3CCC3)c2)n1 (stereo not shown) [Example 66, 1,1,1,3,3,3-Hexafluoropropan-2-yl 5-([3-[3-(azetidin-1-yl)phenyl]-1-ethyl-1H-pyrazol-4-yl]methyl)-octahydropyrrolo[3,4-c]pyrrole-2-carboxylate] | 1000 to 10000 nM | 25 to 75% | < 25% | > 75% | 1000 to 10000 nM | < 100 nM | ≤ 25%
CCn1cc(CN2CC3CN(C(=O)OC(C(F)(F)F)C(F)(F)F)CC3C2)c(-c2ccccc2N2CCC2)n1 (stereo not shown) [Example 63, 1,1,1,3,3,3-Hexafluoropropan-2-yl 5-([3-[2-(azetidin-1-yl)phenyl]-1-ethyl-1H-pyrazol-4-yl]methyl)-octahydropyrrolo[3,4-c]pyrrole-2-carboxylate] | > 10000 nM | 25 to 75% | < 25% | > 75% | 100 to 1000 nM | < 100 nM | ≥ 75%
O=C(OC(C(F)(F)F)C(F)(F)F)N1CC2CN(Cc3cccc(N4CCOCC4)c3C(F)(F)F)CC2C1 (stereo not shown) [Example 129, 1,1,1,3,3,3-hexafluoropropan-2-yl 5-[[3-(morpholin-4-yl)-2-(trifluoromethyl)phenyl]methyl]-octahydropyrrolo[3,4-c]pyrrole-2-carboxylate] | 1000 to 10000 nM | < 25% | < 25% | > 75% | 1000 to 10000 nM | < 100 nM | ≥ 75%
CS(=O)(=O)N1CCC2(CCN(c3ccccc3CN3CC4CN(C(=O)OC(C(F)(F)F)C(F)(F)F)CC4C3)C2)C1 (stereo not shown) [Example 134, 1,1,1,3,3,3-hexafluoropropan-2-yl 5-[(2-[7-methanesulfonyl-2,7-diazaspiro[4.4]nonan-2-yl]phenyl)methyl]-octahydropyrrolo[3,4-c]pyrrole-2-carboxylate] | 1000 to 10000 nM | < 25% | 25 to 75% | > 75% | 1000 to 10000 nM | < 100 nM | ≤ 25%
CCn1cc(CN2CC3CN(C(=O)OC(C(F)(F)F)C(F)(F)F)CC3C2)c(-c2ccc(N3CCCC3)cc2)n1 (stereo not shown) [Example 67, 1,1,1,3,3,3-Hexafluoropropan-2-yl 5-([1-ethyl-3-[4-(pyrrolidin-1-yl)phenyl]-1H-pyrazol-4-yl]methyl)-octahydropyrrolo[3,4-c]pyrrole-2-carboxylate] | 1000 to 10000 nM | < 25% | < 25% | > 75% | 1000 to 10000 nM | < 100 nM | 25 to 75%
CCn1cc(CN2CC3CN(C(=O)OC(C(F)(F)F)C(F)(F)F)CC3C2)c(-c2ccc(N3CCCCC3)cc2)n1 (stereo not shown) [Example 133, 1,1,1,3,3,3-hexafluoropropan-2-yl 5-([1-ethyl-3-[4-(piperidin-1-yl)phenyl]-1H-pyrazol-4-yl]methyl)-octahydropyrrolo[3,4-c]pyrrole-2-carboxylate] | 1000 to 10000 nM | < 25% | < 25% | > 75% | 1000 to 10000 nM | < 100 nM | ≤ 25%
O=C(OC(C(F)(F)F)C(F)(F)F)N1CC2CN(Cc3cccc(Cl)c3N3CCC(F)CC3)CC2C1 (stereo not shown) [Example 159, 1,1,1,3,3,3-hexafluoropropan-2-yl 5-[[3-chloro-2-(4-fluoropiperidin-1-yl)phenyl]methyl]-octahydropyrrolo[3,4-c]pyrrole-2-carboxylate] | > 10000 nM | < 25% | < 25% | > 75% | 1000 to 10000 nM | < 100 nM | ≤ 25%
O=C(OC(C(F)(F)F)C(F)(F)F)N1CC2CN(Cc3ccc(Cl)cc3N3CCC4(CCNC4=O)CC3)CC2C1 (stereo not shown) [Example 38, 1,1,1,3,3,3-Hexafluoropropan-2-yl 5-[(4-chloro-2-[1-oxo-2,8-diazaspiro[4.5]decan-8-yl]phenyl)methyl]-octahydropyrrolo[3,4-c]pyrrole-2-carboxylate] | > 10000 nM | < 25% | < 25% | > 75% | 1000 to 10000 nM | < 100 nM | ≤ 25%
